Converted amounts (≈) assume the structure as drawn. The source made the active and inactive calls. The rule behind the calls is not given here.
How the values were obtained:
[1] = system: BaF3; assay: cells; details: Mus musculus, BaF3, 72 h
[2] = Half life in male Beagle dog at 1 mg/kg, iv; assay type: ADME, organism-based, Canis lupus familiaris; details: in vivo
[3] = system: BaF3; assay: cells; details: Mus musculus, BaF3, 72 h; remark: listed apart in the source
[4] = system: BaF3; assay: Antitumor activity against mouse BaF3 cells harboring TPR-D1228N mutant cells allografted in athymic BALB/c nude mouse at 60 mg/kg, po bid treated for 10 days relative to control; assay type: functional; details: BaF3, 240 h, time 10 day, read-out: TGI
[5] = system: BaF3; assay: Antitumor activity against mouse BaF3 cells harboring TPR-D1228N mutant cells allografted in athymic BALB/c nude mouse at 2 mg/kg, po bid treated for 10 days relative to control; assay type: functional; details: BaF3, 240 h, time 10 day, read-out: TGI
[6] = species: Homo sapiens; assay: Inhibition of c-MET D1228 mutant (unknown origin) at 100 nM in presence of ATP by HotSpot Kinome Selectivity analysis
[7] = molecular target: Macrophage-stimulating protein receptor (Homo sapiens) (UniProt Q04912); assay: Inhibition of wild-type RON (unknown origin) at 100 nM by kinome selectivity analysis relative to control
[8] = system: Mus musculus; assay: In vivo inhibition of MET phosphorylation in human EBC-1 cells xenografted in athymic BALB/c nude mouse administered orally measured after 1 hr post-dose; assay type: functional, organism-based; details: dose 2-60 mg/kg, route po
[9] = molecular target: T1, hERG (Homo sapiens, UniProt Q12809); assay: Inhibition of hERG; assay type: toxicity
T1 sequence (Q12809 whole entry): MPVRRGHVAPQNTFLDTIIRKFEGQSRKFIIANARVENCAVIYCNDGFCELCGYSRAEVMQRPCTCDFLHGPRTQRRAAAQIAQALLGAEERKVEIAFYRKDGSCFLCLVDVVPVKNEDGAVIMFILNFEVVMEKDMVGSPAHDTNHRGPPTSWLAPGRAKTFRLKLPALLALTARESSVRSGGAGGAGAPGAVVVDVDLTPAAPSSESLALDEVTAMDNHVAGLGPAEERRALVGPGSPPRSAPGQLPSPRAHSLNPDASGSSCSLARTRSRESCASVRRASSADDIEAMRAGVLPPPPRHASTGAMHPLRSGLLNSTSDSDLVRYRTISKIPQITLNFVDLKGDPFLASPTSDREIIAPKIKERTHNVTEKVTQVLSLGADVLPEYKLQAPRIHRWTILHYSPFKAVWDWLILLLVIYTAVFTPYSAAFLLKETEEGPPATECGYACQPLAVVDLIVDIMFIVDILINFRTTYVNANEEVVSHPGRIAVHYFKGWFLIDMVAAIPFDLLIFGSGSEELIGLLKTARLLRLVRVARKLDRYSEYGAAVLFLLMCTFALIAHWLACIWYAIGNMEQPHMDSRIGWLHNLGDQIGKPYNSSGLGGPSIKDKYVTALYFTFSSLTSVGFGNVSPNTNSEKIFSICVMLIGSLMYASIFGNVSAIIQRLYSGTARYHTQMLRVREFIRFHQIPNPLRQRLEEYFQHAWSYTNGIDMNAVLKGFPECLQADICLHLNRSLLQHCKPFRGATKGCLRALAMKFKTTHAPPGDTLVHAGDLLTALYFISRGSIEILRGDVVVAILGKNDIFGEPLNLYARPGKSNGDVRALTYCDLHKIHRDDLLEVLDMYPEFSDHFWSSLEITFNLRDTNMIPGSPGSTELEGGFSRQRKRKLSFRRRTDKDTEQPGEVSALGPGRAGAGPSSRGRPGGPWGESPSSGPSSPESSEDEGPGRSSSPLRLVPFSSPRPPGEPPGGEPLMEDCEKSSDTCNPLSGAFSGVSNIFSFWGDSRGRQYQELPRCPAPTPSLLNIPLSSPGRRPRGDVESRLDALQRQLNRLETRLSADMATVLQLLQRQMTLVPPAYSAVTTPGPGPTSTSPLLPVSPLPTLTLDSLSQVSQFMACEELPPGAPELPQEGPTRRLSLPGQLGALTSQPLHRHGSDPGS

[10] = molecular target: cGMP-inhibited 3',5'-cyclic phosphodiesterase 3A (Homo sapiens) (UniProt Q14432); assay: Inhibition of PDE3A (unknown origin) at 10 uM by CEREP analysis relative to control
cGMP-inhibited 3',5'-cyclic phosphodiesterase 3A (Homo sapiens), sequence (Q14432 whole entry): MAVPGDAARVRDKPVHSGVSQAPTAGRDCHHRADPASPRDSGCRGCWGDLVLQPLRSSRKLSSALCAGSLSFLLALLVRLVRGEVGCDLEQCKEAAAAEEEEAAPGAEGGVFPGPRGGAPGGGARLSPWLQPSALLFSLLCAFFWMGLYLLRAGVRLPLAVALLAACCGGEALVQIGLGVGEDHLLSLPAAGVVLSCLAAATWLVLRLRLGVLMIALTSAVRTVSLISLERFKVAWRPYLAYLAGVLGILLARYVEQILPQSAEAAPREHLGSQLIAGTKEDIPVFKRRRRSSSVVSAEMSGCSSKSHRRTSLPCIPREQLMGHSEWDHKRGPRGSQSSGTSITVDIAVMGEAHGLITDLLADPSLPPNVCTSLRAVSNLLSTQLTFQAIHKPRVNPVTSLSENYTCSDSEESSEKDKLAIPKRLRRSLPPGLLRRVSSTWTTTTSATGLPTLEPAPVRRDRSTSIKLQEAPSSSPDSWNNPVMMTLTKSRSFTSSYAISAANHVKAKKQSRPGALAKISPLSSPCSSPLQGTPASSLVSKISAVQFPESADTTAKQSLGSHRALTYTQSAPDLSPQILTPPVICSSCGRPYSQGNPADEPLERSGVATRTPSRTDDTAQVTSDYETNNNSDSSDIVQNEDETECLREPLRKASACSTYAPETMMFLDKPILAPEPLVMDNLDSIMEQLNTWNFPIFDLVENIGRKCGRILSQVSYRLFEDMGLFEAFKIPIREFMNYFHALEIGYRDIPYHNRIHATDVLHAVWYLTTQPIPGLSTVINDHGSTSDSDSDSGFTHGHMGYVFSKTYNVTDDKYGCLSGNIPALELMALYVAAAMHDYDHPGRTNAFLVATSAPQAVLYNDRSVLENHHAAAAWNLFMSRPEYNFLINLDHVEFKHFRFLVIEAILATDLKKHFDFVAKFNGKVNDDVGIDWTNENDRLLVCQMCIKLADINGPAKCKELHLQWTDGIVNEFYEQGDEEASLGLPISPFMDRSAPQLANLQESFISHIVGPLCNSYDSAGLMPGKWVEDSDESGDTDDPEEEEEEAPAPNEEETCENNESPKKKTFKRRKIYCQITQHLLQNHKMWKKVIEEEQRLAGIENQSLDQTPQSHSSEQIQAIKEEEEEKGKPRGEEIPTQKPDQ

[11] = system: Mus musculus; assay: In vivo inhibition of MET phosphorylation in human LU2503 cells xenografted in athymic BALB/c nude mouse at 20 to 60 mg/kg, po measured after 12 hrs post-dose; assay type: functional, organism-based; details: dose 20-60 mg/kg
[12] = species: Homo sapiens; assay: Inhibition of c-MET D1228X/Y1230X mutant (unknown origin) at 100 nM in presence of ATP by HotSpot Kinome Selectivity analysis
[13] = Antitumor activity against human LU2503 cells xenografted in athymic BALB/c nude mouse at 60 mg/kg, po bid treated for 14 days relative to control; assay type: functional; details: LU2503, 336 h, time 14 day, read-out: TGI
[14] = Toxicity in dog assessed as drug tolerance measured for 28 days; parameters: species or system Canis lupus familiaris; details: in vivo, 672 h, time 28 day
[15] = Half life in female Balb/c mouse at 1 mg/kg, iv; assay type: ADME, organism-based; details: in vivo
[16] = species: Homo sapiens; assay: Inhibition of c-MET L1195X/F1200X mutant (unknown origin) at 100 nM in presence of ATP by HotSpot Kinome Selectivity analysis
[17] = system: BaF3; assay: cells; details: Mus musculus, BaF3, 72 h; remark: listed apart in the source
[18] = Clearance in male Beagle dog at 1 mg/kg, iv; assay type: ADME, organism-based, Canis lupus familiaris; details: in vivo
[19] = species: Homo sapiens; assay: Inhibition of sodium channel site 2 (unknown origin) at 10 uM by CEREP analysis relative to control
[20] = Kinetic solubility of compound at pH 4.5; assay type: physicochemical; details: buffer, read-out: Kinetic_solubility
[21] = system: BaF3; assay: cells; details: Mus musculus, BaF3, 72 h; remark: listed apart in the source
[22] = system: Mus musculus; assay: In vivo inhibition of MET phosphorylation in human LU2503 cells xenografted in athymic BALB/c nude mouse administered orally measured after 1 hr post-dose; assay type: functional, organism-based; details: dose 2-60 mg/kg, route po
[23] = Oral bioavailability in male Beagle dog at 10 mg/kg; assay type: ADME, organism-based, Canis lupus familiaris; details: in vivo
[24] = species: Homo sapiens; assay: Inhibition of c-MET G1163R mutant (unknown origin) at 100 nM in presence of ATP by HotSpot Kinome Selectivity analysis
[25] = AUClast in Balb/c mouse at 10 mg/kg, po; assay type: ADME, organism-based; details: in vivo
[26] = AUCfree in rat measured for 28 days; assay type: ADME; details: in vivo, 672 h, time 28 day
[27] = system: BaF3; assay: cells; details: Mus musculus, BaF3, 72 h; remark: listed apart in the source
[28] = molecular target: L-type calcium channel (Homo sapiens, UniProt O60840+Q01668+Q13698+Q13936); assay: Inhibition of Calcium channel L-type (unknown origin) at 10 uM by CEREP analysis relative to control; assay type: protein assay
[29] = system: BaF3; assay: cells; details: Mus musculus, BaF3, 72 h; remark: listed apart in the source
[30] = molecular target: 3',5'-cyclic-AMP phosphodiesterase 4D (Homo sapiens) (UniProt Q08499); assay: Inhibition of PDE4D2 (unknown origin) at 10 uM by CEREP analysis relative to control
3',5'-cyclic-AMP phosphodiesterase 4D (Homo sapiens), sequence (Q08499 whole entry): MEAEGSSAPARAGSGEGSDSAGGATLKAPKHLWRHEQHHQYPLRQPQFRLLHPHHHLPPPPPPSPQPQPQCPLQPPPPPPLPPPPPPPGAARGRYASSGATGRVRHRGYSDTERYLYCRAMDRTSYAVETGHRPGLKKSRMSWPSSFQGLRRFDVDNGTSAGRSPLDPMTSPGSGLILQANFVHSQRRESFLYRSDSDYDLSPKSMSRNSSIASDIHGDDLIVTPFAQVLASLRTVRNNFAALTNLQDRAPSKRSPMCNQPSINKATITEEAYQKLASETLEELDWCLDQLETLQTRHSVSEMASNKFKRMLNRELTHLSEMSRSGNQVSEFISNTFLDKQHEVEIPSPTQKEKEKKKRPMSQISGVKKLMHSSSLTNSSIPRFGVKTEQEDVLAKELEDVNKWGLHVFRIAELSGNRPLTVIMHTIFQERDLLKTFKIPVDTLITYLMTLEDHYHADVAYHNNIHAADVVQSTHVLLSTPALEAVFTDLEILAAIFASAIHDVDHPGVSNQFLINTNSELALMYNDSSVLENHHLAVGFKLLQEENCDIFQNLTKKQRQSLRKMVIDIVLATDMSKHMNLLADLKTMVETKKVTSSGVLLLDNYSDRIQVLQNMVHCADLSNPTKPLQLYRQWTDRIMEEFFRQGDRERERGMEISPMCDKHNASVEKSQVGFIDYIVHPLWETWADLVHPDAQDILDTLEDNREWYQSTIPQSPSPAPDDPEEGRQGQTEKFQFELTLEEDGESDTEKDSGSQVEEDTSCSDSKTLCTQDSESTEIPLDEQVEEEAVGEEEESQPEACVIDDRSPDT

[31] = Antitumor activity against human LU2503 cells xenografted in athymic BALB/c nude mouse at 2 mg/kg, po bid treated for 14 days relative to control; assay type: functional; details: LU2503, 336 h, time 14 day, read-out: TGI
[32] = Oral bioavailability in Balb/c mouse at 10 mg/kg; assay type: ADME, organism-based; details: in vivo
[33] = system: BaF3; assay: cells; details: Mus musculus, BaF3, 72 h; remark: listed apart in the source
[34] = molecular target: Cytochrome P450 3A4 (Homo sapiens, UniProt P08684); assay: Inhibition of CYP3A4 (unknown origin); assay type: ADME; details: human
Cytochrome P450 3A4, sequence (P08684 whole entry): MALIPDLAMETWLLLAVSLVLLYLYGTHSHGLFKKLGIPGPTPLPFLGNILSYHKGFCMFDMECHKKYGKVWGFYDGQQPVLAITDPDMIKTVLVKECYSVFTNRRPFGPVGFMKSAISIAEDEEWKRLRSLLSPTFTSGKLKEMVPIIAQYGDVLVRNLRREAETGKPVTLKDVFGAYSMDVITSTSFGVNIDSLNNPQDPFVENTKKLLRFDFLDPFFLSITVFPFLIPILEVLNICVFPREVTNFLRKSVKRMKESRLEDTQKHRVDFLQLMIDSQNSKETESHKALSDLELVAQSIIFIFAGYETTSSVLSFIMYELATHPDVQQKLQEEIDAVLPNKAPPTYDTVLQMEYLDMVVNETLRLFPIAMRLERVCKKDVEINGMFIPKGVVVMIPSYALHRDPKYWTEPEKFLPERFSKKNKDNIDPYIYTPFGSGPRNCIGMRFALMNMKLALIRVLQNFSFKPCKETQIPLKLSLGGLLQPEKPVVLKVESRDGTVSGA

[35] = AUClast in male Sprague-Dawley rat at 10 mg/kg, po; assay type: ADME, organism-based; details: in vivo
[36] = Half life in male Sprague-Dawley rat at 3 mg/kg, iv; assay type: ADME, organism-based; details: in vivo
[37] = molecular target: T1, hERG; assay: Inhibition of hERG at 10 uM by CEREP analysis relative to control; assay type: toxicity
[38] = molecular target: 5-hydroxytryptamine receptor 1B (Homo sapiens) (UniProt P28222); assay: Inhibition of 5-HT1B receptor (unknown origin) at 10 uM by CEREP analysis relative to control
5-hydroxytryptamine receptor 1B (Homo sapiens), sequence (P28222 whole entry): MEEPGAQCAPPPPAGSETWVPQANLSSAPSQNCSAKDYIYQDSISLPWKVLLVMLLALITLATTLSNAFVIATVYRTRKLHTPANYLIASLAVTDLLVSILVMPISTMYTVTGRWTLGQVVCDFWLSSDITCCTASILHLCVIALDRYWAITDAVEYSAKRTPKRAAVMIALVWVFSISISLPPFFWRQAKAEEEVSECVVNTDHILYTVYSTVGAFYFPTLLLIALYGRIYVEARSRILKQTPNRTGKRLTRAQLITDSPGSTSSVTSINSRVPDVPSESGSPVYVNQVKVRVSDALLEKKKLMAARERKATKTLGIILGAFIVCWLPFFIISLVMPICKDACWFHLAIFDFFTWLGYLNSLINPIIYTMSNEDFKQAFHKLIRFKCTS

COc1cc2nccc(Oc3c(F)cc(NC(=O)c4cnccc4OC)cc3F)c2cc1O[C@@H](C)CO showed an EC50 [1] of 18 nM, a half-life [2] of 6.3 h and an EC50 [3] of 7.7 nM. For the same compound, the inhibition in vivo at 60 mg/kg [4] was 128%, the inhibition in vivo at 2 mg/kg [5] was 26% and the inhibition [6] was 0%. The inhibition [7] was greater than 90%, the inhibition [8] was “Dose-dependent-effect” and the IC20 [9] was 10000 nM. For the same compound, the inhibition [10] was 16%, the inhibition [11] was “Active” and the inhibition [12] was 49%. For the same compound, the inhibition in vivo at 60 mg/kg [13] was 113%, the Activity [14] was “Non-toxic” and the half-life [15] was 1.8 h. It also gave an inhibition [16] of -4%, an EC50 [17] of 37 nM and a clearance [18] of 3.5 mL/min/kg. For the same compound, the inhibition [19] was 40%, the solubility kinetic [20] was 145 µM (≈ 74.2 µg/mL) and the EC50 [21] was 9.1 nM. The inhibition [22] was “Dose-dependent-effect”, the bioavailability [23] was 56% and the inhibition [24] was 63%. For the same compound, the AUC(0-t) [25] was 13500 ng·h/mL, the fAUC [26] was 5100 ng·h/mL and the EC50 [27] was 538 nM. For the same compound, the inhibition at 10 µM [28] was -4%, the EC50 [29] was 19 nM and the inhibition [30] was 65%. For the same compound, the inhibition in vivo at 2 mg/kg [31] was 43%, the bioavailability [32] was 100% and the EC50 [33] was 9.1 nM. The “inhibition (INH)” value [34] was “Not_active”, the AUC(0-t) [35] was 18600 ng·h/mL and the half-life [36] was 4.9 h. For the same compound, the inhibition at 10 µM [37] was 18% and the inhibition [38] was -3%.
